Consider 1 substance from paper PMC10779143, “Collagen-like Osteoclast-Associated Receptor (OSCAR)-Binding Motifs Show a Co-Stimulatory Effect on Osteoclastogenesis in a Peptide Hydrogel System” (International Journal of Molecular Sciences, 2023).

Series [1] in a line: CD analysis of secondary structure (collagen triple helix) and refolding. As to conditions: CD Buffer pH 7.4. The series is classed as physicochemical.
Description: Secondary structures of OP1_Hyp, OP1_Pro, and OCol1 were analysed by circular dichroism (CD) spectroscopy using a Jasco® J-810 spectropolarimeter (UCI, Irvine, CA, USA) equipped with a Peltier temperature controller. OP1_Hyp and OP1_Pro were resuspended up to a concentration of 0.5 mg/mL in a CD transparent buffer (10 mM K2HPO4, 10 mM KH2PO4, 150 mM KF, pH 7.4, CD Buffer) [15] and kept for 24 h at 4 °C to allow for the formation of the collagen triple helical structure. OCol1 was exchanged to CD Buffer using a PD 10 disposable desalting column (GE17-0851-01, Merck, Feltham, UK). Briefly, the column was equilibrated with five column volumes of CD Buffer before the addition of OCol1 to the storage buffer. After flow-through collection, 0.5 mL fractions were collected into 1.5 mL Eppendorf tubes. The OCol1 elution fractions were quickly analysed by CD, and the one with the highest concentration (0.2 mg/mL) was used. CD spectra were measured between 190 nm and 260 nm at 10 °C using a 1 mm path-length CD-matched quartz cuvette (Starna Scientific, Ilford, UK). Data were collected every 0.2 nm with a 1 nm bandwidth. Spectral baselines were corrected by subtracting the spectrum of CD Buffer (blank) collected under the same conditions. Additionally, the thermal stability of OP1_Hyp, OP1_Pro, and OCol1 was analysed. Thermal transition profiles were recorded between 10 °C and 60 °C (OP1_Hyp and OP1_Pro) or 70 °C (OCol1) at 222 nm with a data pitch of 0.2 °C, a bandwidth of 1 nm, a detector response time of 32 s, and a temperature slope of 1 °C/min. Samples were cooled back to 10 °C after the different transitions had been completed, and final spectra were recorded at that temperature. Ellipticity in millidegrees was converted to mean residue molar ellipticity Θ (degree cm^2 dmol^−1) by normalising for the number of residues on each peptide or protein [23].
Series [2] concerns the target T1, recombinant human OSCAR-Fc chimera (Homo sapiens, UniProt Q8IYS5).
T1 construct: extracellular region of human OSCAR (Asp19-Asn229, NP_573399); purchased R&D Systems, Bio-Techne 9955-OS
T1 sequence (Q8IYS5 19-229 isoform Q8IYS5-2): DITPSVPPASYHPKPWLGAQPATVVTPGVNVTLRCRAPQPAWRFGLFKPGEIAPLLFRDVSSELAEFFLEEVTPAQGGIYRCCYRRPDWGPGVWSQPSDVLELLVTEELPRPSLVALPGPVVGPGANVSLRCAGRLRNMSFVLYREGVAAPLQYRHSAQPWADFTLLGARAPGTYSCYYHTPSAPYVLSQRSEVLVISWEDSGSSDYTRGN
Description: Surface plasmon resonance (SPR) analysis of the peptide-OSCAR interaction. As to conditions: 25 °C. It counts as binding. How it is done:
Surface plasmon resonance (SPR) was used to determine the binding affinity between OP1_Hyp or OP1_Pro and a recombinant human OSCAR-Fc chimera made from the extracellular region of human OSCAR (Asp19-Asn229, NP_573399) and the Fc domain from human IgG1 (Pro100-Lys330, P01857-1). A kinetic analysis was performed with immobilised OSCAR-Fc, OP1_Hyp, and OP1_Pro as analytes. A Langmuir 1:1 model was used to perform the kinetic analysis. This model is based on a simple interaction between ligand and analytes where a 1:1 molar complex is formed at equilibrium, i.e., A + B ⇄ AB. The kinetics of the reaction are determined by the association and dissociation rate constants (ka and kd, respectively), with an overall affinity constant (KD) given by KD = kd/ka.
SPR analyses were carried out on a Biacore™ T200 (Cytiva) using a Series S CM5 sensor chip with an assay running buffer of 10 mM PBS, 150 mM NaCl, 0.05% Tween20, pH 7.4. Reference and active flow cells were activated by injecting 70 μL of a 1:1 mixture of 0.2 M 1-ethyl-3-(3-dimethylaminopropyl)-carbodiimide (EDC) and 0.1 M N-hydroxysuccinimide (NHS) at 10 µL/min. Recombinant human OSCAR-Fc chimera (R&D Systems, Bio-Techne, Minneapolis, MN, USA, 9955-OS) was immobilised onto the active flow cell at 20 µg/mL in 10 mM sodium acetate pH 5.0 at 10 µL/min to 6880 response units (RU). Reference and active flow cells were blocked using 1 M ethanolamine, pH 8, at a flow rate of 10 µL/min. For kinetic and equilibrium binding analysis, OP1_Hyp and OP1_Pro peptides were flowed at 25 °C active and reference flow cells at 30 µL/min in assay running buffer at peptide concentrations of 5000—0 nM (OP1_Hyp) and 40,000—0 nM (OP1_Pro), using a dilution series. Surfaces were regenerated with a 10 s injection of 0.1 M glycine, pH 2.0. Data sets were analysed with the built-in BiaEvaluation software (version 4.1). The models used for analysis were the Langmuir 1:1 binding model and the steady-state analysis model. Data are presented as the mean and standard error of the mean (SEM) of triplicate runs.
(In general: Surface plasmon resonance follows binding to a sensor surface in real time, without labels.)

The next series has as its system Raw 264.7 cells. Kind of series: TRAP staining / osteoclast morphology of Raw 264.7 cells on peptide-coated tissue culture plastic. It counts as cell-based. How it is done:
(§1) Raw 264.7 cells were cultured and passaged as previously described. Cell adhesion to OP1_Hyp and OP1_Pro was assessed as shown by Barrow et al.. Briefly, 48-well plates were coated with 10 µg/mL of OSCAR-binding peptides overnight at 4 °C. The excess peptide was then removed by washing with PBS before adding 1% BSA to block non-specific binding sites for 1 h at 25 °C. Raw 264.7 cells were then resuspended at a concentration of 2 × 10^5 cells/mL and added to the well. Cells were cultured with different concentrations of human RANKL (hRANKL) (catalogue number: 310-01 from Peprotech, London, UK) (0–100 ng/mL) for up to 5 days to assess the contribution of the OSCAR-binding peptides OP1_Hyp and OP1_Pro to the differentiation of Raw 264.7 cells to mature OCs.
After 5 days of post-culture, Raw 264.7 cells were fixed in 4% PFA for 15 min at room temperature. TRAP was stained following the manufacturer’s protocol and evaluated by light microscopy (ThermoFisher, Swindon, UK). Multinucleated TRAP+ cells containing more than three nuclei were scored as mature OCs.

For series [3], the system named is TRAP gene expression, Raw 264.7 cells. Description: qRT-PCR TRAP gene expression, Raw 264.7 cells on peptide-coated TCP. It counts as cell-based. On the procedure:
as §1
(§2) Gene expression of OC markers was evaluated as previously described. A StepOne™ Real-Time PCR System (Applied Biosystems, Warrington, UK) was used, with TaqMan probes and a universal PCR Master Mix (Life Technologies, Carlsbad, CA, USA, 4304437) in a total volume of 10 µL. The TaqMan probes for TRAP and OSCAR were Mm00475698_m1 and Mm01338227_g1, respectively. Data were analysed using the 2^−∆Ct method and normalised to the endogenous housekeeping gene GAPDH (Mm99999915_g1). Experiments were performed in triplicate.

The subject of series [4] is OSCAR gene expression, Raw 264.7 cells. Kind of series: qRT-PCR OSCAR gene expression, Raw 264.7 cells on peptide-coated TCP. The series is classed as cell-based. As to conditions: n = 3. On the procedure: as §1, §2
On the technique in general: Real-time PCR tracks product formation cycle by cycle.

Consider “Ac-GPOGPOGPOGAPGPAGFAGPOGPOGPO-NH2 [OP1_Pro]”, for which the “Triple helical features (positive ellipticity band) at 70 °C” value in series [1] (CD at 70 °C) is given as “disappeared from the CD spectra”. For the same substance, in series [1] (CD spectra 190-260 nm at 10 °C, 0.5 mg/mL peptides, 0.2 mg/mL OCol1), the “Secondary structure by CD” value is “a band of positive ellipticity with a maximum at ~220 nm and a deep band of negative ellipticity with a minimum at ~198 nm, previously associated with the typical conformation of the collagen triple helix”. In addition, the “Refolding of the triple helix after denaturation” value in series [1] (cooling from 70 °C to 10 °C, approximately 30 min, 210 µM peptides, 12 µM OCol1) was “partial recovery of the collagen structure”. The “Retention of OSCAR binding on replacing Hyp with Pro” value in series [2] (Hyp at position 3 replaced with Pro) is given as “OSCAR binding is not abolished”. Also, in series [2] (immobilised human OSCAR-Fc, pH 7.4), the “Association/dissociation behaviour in sensorgrams” value was “both association and dissociation phases occurred very quickly”. For the same substance, the “Osteoclast features / TRAP staining, 10 ng/mL hRANKL” value in the series on Raw 264.7 cells (5 days on coated TCP, 10 ng/mL hRANKL (suboptimal)) was “still showed signs of osteoclastogenesis”. Further, the “Osteoclast features / TRAP staining, 100 ng/mL hRANKL” value in the series with Raw 264.7 cells (5 days on coated TCP, 100 ng/mL hRANKL, peptide effect masked by high hRANKL) is given as “typical OC features”. Moreover, the “Differentiation without hRANKL (TRAP staining)” value in the series with Raw 264.7 cells (5 days on coated TCP, no hRANKL added) was “not able to trigger any differentiation on their own”. Also, in the series with Raw 264.7 cells (used as substrate on TCP), the “Overall effect on differentiation of Raw 264.7 cells on coated TCP” value was “positive effect on differentiation”. The “TRAP expression, 100 ng/mL hRANKL” value in series [3] (5 days vs day 1, relative to GAPDH, n = 3) is reported as “significantly higher after 5 days”. In addition, the “TRAP expression, 10 ng/mL hRANKL” value in series [3] (5 days, relative to GAPDH, n = 3, lower than with 100 ng/mL hRANKL) is “TRAP expression was lower”. Moreover, in series [3] (five days, relative to GAPDH, n = 3), the “TRAP expression, 0-1 ng/mL hRANKL” value is recorded as “either expressed at lower amounts or did not change significantly after five days of culture”. The “OSCAR expression, 100 ng/mL hRANKL” value in series [4] (5 days vs day 1, relative to GAPDH) is on record as “significantly higher compared to day 1”. The “OSCAR expression, 10 ng/mL hRANKL” value in series [4] (5 days, relative to GAPDH) was “still significantly higher”. Moreover, the “OSCAR expression, 0-1 ng/mL hRANKL” value in series [4] (five days, relative to GAPDH) is recorded as “either expressed at lower amounts or did not change significantly after five days of culture”.
